The values below come from patent publication US12325681B2, “Inhibitors of nitric oxide synthases (NOS), pharmaceutical products thereof, and methods thereof” (Gacter Inc., priority 2022, dated 2025).

Data set [1] concerns mice. Conditions: cited from earlier work.
Data set [2] concerns rats. Conditions: cited from earlier work.
Data set [3] deals with T1, iNOS (Homo sapiens, UniProt P35228). Conditions: in words; cited from earlier work.
Data set [4] concerns the target T1, iNOS. Nature of the data set: abcam NOS Inhibitor Screening Kit, IC50 (fluorescence). Further details: IC50. In kind it is biochemical. On the procedure: The IC50 of some compounds of the invention was determined using the abcam NOS Inhibitor Screening Kit. The procedure includes the following steps: (1) Dissolved a test compound to 10 mM in DMSO; (2) Diluted the test compound to 1 mM in NOS Assay Buffer; (3) Diluted 1 mM of the test compound stocks to 200 μM, 50 μM, 12.5 μM, 3.125 μM, 0.781 μM, and 0.195 μM in NOS Assay Buffer; (4) Diluted 1 mM DPI Control to 50.0 μM, 12.5 μM, 3.125 μM, 0.781 μM, 0.195 μM, and 0.0488 μM in NOS Assay Buffer; (5) Diluted NOS enzyme with 400 μL of NOS Assay Buffer; (6) Combined Diluted NOS Enzyme with 1.6 mL of NOS Assay buffer then transferred 20 μL of enzyme solution to all wells of 96-well Fluorescence plate except background wells. Added 20 μL of NOS Assay buffer to background wells. (7) Transferred 10 uL of each test compound dilution to the enzyme buffer mix according to the plate map (see addendum for plate map and raw data values). (8) Incubated 15 minutes at room temperature. (9) Added 11 μL of NOS reaction mix (according to manufacturer's protocol) to each well, mixed, and incubated at 37° C. for 1 hour. […] Measure Fluorescence at 360 nm excitation/450 nm emission.

In data set [5] the target is T1, iNOS. The data set is described as above. The format is biochemical. Further details: IC50; IC50. Conditions: abcam NOS Inhibitor Screening Kit. On the procedure: (§1) The IC50 of some compounds of the invention was determined using the abcam NOS Inhibitor Screening Kit. The procedure includes the following steps: (1) Dissolved a test compound to 10 mM in DMSO; (2) Diluted the test compound to 1 mM in NOS Assay Buffer; (3) Diluted 1 mM of the test compound stocks to 200 μM, 50 μM, 12.5 μM, 3.125 μM, 0.781 μM, and 0.195 μM in NOS Assay Buffer; (4) Diluted 1 mM DPI Control to 50.0 μM, 12.5 μM, 3.125 μM, 0.781 μM, 0.195 μM, and 0.0488 μM in NOS Assay Buffer; (5) Diluted NOS enzyme with 400 μL of NOS Assay Buffer; (6) Combined Diluted NOS Enzyme with 1.6 mL of NOS Assay buffer then transferred 20 μL of enzyme solution to all wells of 96-well Fluorescence plate except background wells. Added 20 μL of NOS Assay buffer to background wells. (7) Transferred 10 uL of each test compound dilution to the enzyme buffer mix according to the plate map (see addendum for plate map and raw data values). (8) Incubated 15 minutes at room temperature. (9) Added 11 μL of NOS reaction mix (according to manufacturer's protocol) to each well, mixed, and incubated at 37° C. for 1 hour. (10) Added 110 μL of NOS Assay Buffer to each well followed by 5 μL of Enhancer to each well, mixed, and incubated 10 minutes at room temperature; (11) Added 10 μL of Probe to each well, mixed, and incubated 10 minutes at room temperature; and (12) Added 5 μL of NaOH to each well, mixed, and incubated 10 minutes at room temperature. Measure Fluorescence at 360 nm excitation/450 nm emission.

For data set [6], the target named is T1, iNOS. The data set is described as above. In kind it is biochemical. Further details: Fold (GT-xxxx)/AZ 6b. Conditions: ratio of IC50 to AZ 6b IC50 (0.0488 μM). On the procedure:
as §1

pIC50: −log10 of the molar value. Read-outs that look alike come from different tables or passages of the source.

T1 sequence (P35228 whole entry): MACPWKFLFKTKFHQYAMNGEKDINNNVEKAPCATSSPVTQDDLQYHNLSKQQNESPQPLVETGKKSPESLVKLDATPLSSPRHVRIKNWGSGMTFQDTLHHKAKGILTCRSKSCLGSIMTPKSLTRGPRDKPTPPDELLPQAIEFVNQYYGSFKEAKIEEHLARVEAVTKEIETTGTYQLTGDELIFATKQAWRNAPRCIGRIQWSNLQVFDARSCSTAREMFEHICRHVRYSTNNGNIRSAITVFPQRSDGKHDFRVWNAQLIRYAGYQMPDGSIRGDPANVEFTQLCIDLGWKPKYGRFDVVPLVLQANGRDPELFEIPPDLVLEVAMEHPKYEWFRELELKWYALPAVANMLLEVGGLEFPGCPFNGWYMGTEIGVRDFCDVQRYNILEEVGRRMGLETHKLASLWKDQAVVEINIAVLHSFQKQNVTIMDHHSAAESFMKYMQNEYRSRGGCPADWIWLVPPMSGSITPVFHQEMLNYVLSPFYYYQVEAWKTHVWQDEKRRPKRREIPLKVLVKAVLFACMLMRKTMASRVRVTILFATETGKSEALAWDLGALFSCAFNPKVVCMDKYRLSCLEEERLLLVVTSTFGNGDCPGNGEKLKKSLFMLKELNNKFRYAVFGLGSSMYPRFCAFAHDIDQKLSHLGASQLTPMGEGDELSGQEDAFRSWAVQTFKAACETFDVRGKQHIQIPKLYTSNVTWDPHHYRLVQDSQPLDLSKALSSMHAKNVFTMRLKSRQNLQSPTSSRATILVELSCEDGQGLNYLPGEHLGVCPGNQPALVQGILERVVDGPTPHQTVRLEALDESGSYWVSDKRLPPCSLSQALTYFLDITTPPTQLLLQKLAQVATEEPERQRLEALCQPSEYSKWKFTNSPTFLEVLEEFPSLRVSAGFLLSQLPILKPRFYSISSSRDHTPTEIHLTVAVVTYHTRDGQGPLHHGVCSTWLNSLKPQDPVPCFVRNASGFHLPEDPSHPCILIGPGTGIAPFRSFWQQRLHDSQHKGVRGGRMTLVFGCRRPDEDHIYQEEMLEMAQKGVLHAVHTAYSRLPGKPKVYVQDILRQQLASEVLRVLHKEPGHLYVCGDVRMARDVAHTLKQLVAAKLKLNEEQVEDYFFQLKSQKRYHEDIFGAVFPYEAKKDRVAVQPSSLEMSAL

Take `N=C(N)SCCc1ccc(CCSC(=N)N)cc1` [PBIT, S,S′-1,4-phenylene-bis(1,2-ethanediyl)bis-isothiourea]: the “acutely toxic at doses as low as” value in data set [1] and in data set [2] was 10 mg/kg throughout. Moreover, the “selectivity of inhibition iNOS to eNOS” value in data set [3] is on record as “does not exhibit necessary selectivity”.

For the molecule `N#Cc1ccc(Cl)cc1O[C@H](CCN)c1ccccc1` [AZ 6b, (R)-2-(3-amino-1-phenylpropoxy)-4-chlorobenzonitrile, reference compound], the pIC50 in data set [4] is 7.31.

For the molecule `NCC[C@@H](Oc1cc(Cl)cc2[nH]ncc12)c1ccccc1` [GT-6045], the pIC50 in data set [5] (Table C-1) and in data set [5] (Table C-2) was 6.64 in each case. The “Fold (GT-xxxx)/AZ 6b” value in data set [6] was 4.73.

Turning to `OCCNCC[C@@H](Oc1cc(Cl)cc2[nH]cnc12)c1ccccc1` [GT-6060, (R)-2-((3-((6-chloro-1H-benzo[d]imidazol-4-yl)oxy)-3-phenylpropyl)amino)ethan-1-ol], the pIC50 in data set [5] (Table C-1) and in data set [5] (Table C-2) was 6.35 each time. Moreover, the “Fold (GT-xxxx)/AZ 6b” value in data set [6] came to 9.10.

`N#Cc1ccc(Cl)cc1C(=O)N(CCNCCCO)c1ccccc1` [GT-7011, 5-chloro-2-cyano-N-(2-((3-hydroxypropyl)amino)ethyl)-N-phenylbenzamide]: the pIC50 in data set [5] (Table C-1) and in data set [5] (Table C-2) was 6.54 each time. Besides, in data set [6], the “Fold (GT-xxxx)/AZ 6b” value turned out to be 5.94.

As to `NCC[C@@H](Oc1cc(Cl)cc2[nH]cnc12)c1ccccc1` [GT-6041, (R)-3-((6-chloro-1H-benzo[d]imidazol-4-yl)oxy)-3-phenylpropan-1-amine], the pIC50 in data set [5] (Table C-1) and in data set [5] (Table C-2) was 6.81 throughout. Also, the “Fold (GT-xxxx)/AZ 6b” value in data set [6] was found to be 3.20.

For orientation: pIC50 means −log10 of the IC50, conventionally taken in molar units. Low readings indicate a large IC50, high ones a small IC50.
